Assay results taken from PubChem BioAssay (NCI).
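Tested at 5 concentrations; 48 h exposure; 96-well plates; endpoints linearly interpolated, else capped at highest concentration. GI50: concentration for 50% inhibition of growth. Definition used: TGI = concentration required for complete inhibition of growth.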

Tests used:
Experiment in all cases: NCI-60 cell line screen, 48 h
[1] = tested on: OVCAR-8 ovarian
[2] = tested on: DU-145 prostate
[3] = tested on: HL-60(TB) leukemia
[4] = tested on: SNB-19 CNS
[5] = tested on: M14 melanoma
[6] = tested on: TK-10 renal
[7] = tested on: MALME-3M melanoma
[8] = tested on: SK-MEL-5 melanoma
[9] = tested on: OVCAR-5 ovarian
[10] = tested on: CAKI-1 renal
[11] = tested on: OVCAR-4 ovarian
[12] = tested on: SNB-75 CNS
[13] = tested on: A498 renal
[14] = tested on: LOX IMVI melanoma
[15] = tested on: COLO 205 colon
[16] = tested on: SF-268 CNS
[17] = tested on: NCI/ADR-RES ovarian
[18] = tested on: K-562 leukemia
[19] = tested on: SF-539 CNS
[20] = tested on: MCF7 breast
[21] = tested on: NCI-H23 lung
[22] = tested on: HT29 colon
[23] = tested on: HOP-62 NSCLC
[24] = tested on: HCT-116 colon
[25] = tested on: SF-295 CNS
[26] = tested on: IGROV1 ovarian
[27] = tested on: MDA-MB-231 breast
[28] = tested on: NCI-H226 lung
[29] = tested on: U251 CNS
[30] = tested on: SW-620 colon
[31] = tested on: RPMI-8226 leukemia
[32] = tested on: NCI-H460 lung
[33] = tested on: SR leukemia
[34] = tested on: HCT-15 colon
[35] = tested on: RXF 393 renal
[36] = tested on: BT-549 breast
[37] = tested on: MDA-MB-435
[38] = tested on: HS 578T breast
[39] = tested on: CCRF-CEM leukemia
[40] = tested on: ACHN renal
[41] = tested on: SK-MEL-2 melanoma
[42] = tested on: 786-0 renal
[43] = tested on: EKVX NSCLC
[44] = tested on: SK-OV-3 ovarian
[45] = tested on: SN12C renal
[46] = tested on: T-47D breast
[47] = tested on: A549 NSCLC
[48] = tested on: OVCAR-3 ovarian
[49] = tested on: UACC-62 melanoma
[50] = tested on: MOLT-4 leukemia
[51] = tested on: UACC-257 melanoma
[52] = tested on: HOP-92 NSCLC
[53] = tested on: HCC-2998 colon
[54] = tested on: PC-3 prostate
[55] = tested on: SK-MEL-28 melanoma
[56] = tested on: KM12 colon
[57] = tested on: UO-31 renal

SMILES: C=CCc1cccc(/C=N/NC(=O)CN2CCN(Cc3ccccc3)CC2)c1O
- GI50 [1]: 2080 nM
- TGI [1]: 17.6 µM
- GI50 [2]: 1790 nM
- TGI [2]: 13.4 µM
- GI50 [3]: 1600 nM
- TGI [3]: 4.79 µM
- GI50 [4]: 5.36 µM
- TGI [4]: 20.1 µM
- GI50 [5]: 1840 nM
- TGI [5]: 13.3 µM
- GI50 [6]: 925 nM
- TGI [6]: 15.1 µM
- GI50 [7]: 5.79 µM
- TGI [7]: 19.8 µM
- GI50 [8]: 1260 nM
- TGI [8]: 3.53 µM
- GI50 [9]: 4.46 µM
- TGI [9]: 18.1 µM
- GI50 [10]: 841 nM
- TGI [10]: 2120 nM
- GI50 [11]: 1450 nM
- TGI [11]: 11.8 µM
- GI50 [12]: 2570 nM
- TGI [12]: 12.9 µM
- GI50 [13]: 4.86 µM
- TGI [13]: 18.2 µM
- GI50 [14]: 1050 nM
- TGI [14]: 6.59 µM
- GI50 [15]: 2220 nM
- TGI [15]: 13.9 µM
- GI50 [16]: 1990 nM
- TGI [16]: 16.4 µM
- GI50 [17]: 920 nM
- TGI [17]: 11.9 µM
- GI50 [18]: 1870 nM
- TGI [18]: 11 µM
- GI50 [19]: 2320 nM
- TGI [19]: 9.49 µM
- GI50 [20]: 2520 nM
- TGI [20]: 12.5 µM
- GI50 [21]: 3.05 µM
- TGI [21]: 16.5 µM
- GI50 [22]: 3.24 µM
- TGI [22]: 13.7 µM
- GI50 [23]: 2250 nM
- TGI [23]: 13.8 µM
- GI50 [24]: 1710 nM
- TGI [24]: 13.8 µM
- GI50 [25]: 649 nM
- TGI [25]: 4.04 µM
- GI50 [26]: 483 nM
- TGI [26]: 3.13 µM
- GI50 [27]: 2490 nM
- TGI [27]: 15.5 µM
- GI50 [28]: 2640 nM
- TGI [28]: 14 µM
- GI50 [29]: 2130 nM
- TGI [29]: 14.9 µM
- GI50 [30]: 3.8 µM
- TGI [30]: 17.1 µM
- GI50 [31]: 1470 nM
- TGI [31]: 12.7 µM
- GI50 [32]: 1410 nM
- TGI [32]: 11.6 µM
- GI50 [33]: 772 nM
- TGI [33]: 4.24 µM
- GI50 [34]: 693 nM
- TGI [34]: 15.1 µM
- GI50 [35]: 638 nM
- TGI [35]: 16.1 µM
- GI50 [36]: 2840 nM
- TGI [36]: 15.3 µM
- GI50 [37]: 2860 nM
- TGI [37]: 13.3 µM
- GI50 [38]: 5.63 µM
- TGI [38]: 23.1 µM
- GI50 [39]: 656 nM
- TGI [39]: 7.78 µM
- GI50 [40]: 1540 nM
- TGI [40]: 12 µM
- GI50 [41]: 2310 nM
- TGI [41]: 11.5 µM
- GI50 [42]: 2040 nM
- TGI [42]: 12.1 µM
- GI50 [43]: 2490 nM
- TGI [43]: 12.8 µM
- GI50 [44]: 2880 nM
- TGI [44]: 17.8 µM
- GI50 [45]: 4.4 µM
- TGI [45]: 18.9 µM
- GI50 [46]: 2320 nM
- TGI [46]: 14.9 µM
- GI50 [47]: 3.34 µM
- TGI [47]: 16.4 µM
- GI50 [48]: 808 nM
- TGI [48]: 6.32 µM
- GI50 [49]: 3.28 µM
- TGI [49]: 12.8 µM
- GI50 [50]: 1120 nM
- TGI [50]: 5.64 µM
- GI50 [51]: 2460 nM
- TGI [51]: 13.8 µM
- GI50 [52]: 1280 nM
- TGI [52]: 6.22 µM
- GI50 [53]: 2740 nM
- TGI [53]: 17.1 µM
- GI50 [54]: 3.45 µM
- TGI [54]: 16.1 µM
- GI50 [55]: 2430 nM
- TGI [55]: 15.5 µM
- GI50 [56]: 2560 nM
- TGI [56]: 15 µM
- GI50 [57]: 1150 nM
- TGI [57]: 7.38 µM
